This passage reports MIC80 results from ChEMBL document CHEMBL1157917, “Structure-based rational design, synthesis and antifungal activity of oxime-containing azole derivatives” (2010).

Holding throughout (assay type): functional
For one experiment, the system named is Candida albicans. Nature of the experiment: Antifungal activity against Candida albicans after 24 hrs by serial dilution method.
In another experiment the test system is Candida tropicalis. Put plainly: Antifungal activity against Candida tropicalis after 24 hrs by serial dilution method.
Another experiment concerns Candida parapsilosis. Nature of the experiment: Antifungal activity against Candida parapsilosis after 24 hrs by serial dilution method. Conditions: Lodderomyces parapsilosis.
The test system of the next experiment is Pichia kudriavzevii. Nature of the experiment: Antifungal activity against Candida krusei after 24 hrs by serial dilution method.
The next experiment relates to Cryptococcus neoformans. Put plainly: Antifungal activity against Cryptococcus neoformans after 72 hrs by serial dilution method.
The next experiment concerns Trichophyton rubrum. Put plainly: Antifungal activity against Trichophyton rubrum after 7 days by serial dilution method. The note with it: 168 h.
For another experiment, the system named is Aspergillus fumigatus. Nature of the experiment: Antifungal activity against Aspergillus fumigatus after 7 days by serial dilution method. Conditions: 168 h.

In brackets after ≈: the same amount, converted by molar mass.

As for `Cc1ccc(CON=C2CCN(CC(O)(Cn3cncn3)c3ccc(F)cc3F)CC2)cc1` (racemic), the MIC80 against Candida albicans is 64 µg/mL (≈ 141 µM); with Candida tropicalis, 64 µg/mL (≈ 141 µM); in the experiment with Candida parapsilosis, 64 µg/mL (≈ 141 µM); in the experiment on Pichia kudriavzevii, 16 µg/mL (≈ 35.1 µM); in the experiment with Cryptococcus neoformans, 16 µg/mL (≈ 35.1 µM); against Trichophyton rubrum, 16 µg/mL (≈ 35.1 µM). The same molecule displayed an MIC80 with Aspergillus fumigatus of 64 µg/mL (≈ 141 µM).

Regarding `C=Cc1ccc(CON=C2CCN(CC(O)(Cn3cncn3)c3ccc(F)cc3F)CC2)cc1` (racemic), the MIC80 was 16 µg/mL (≈ 34.2 µM) in the experiment on Candida albicans; 64 µg/mL (≈ 137 µM) against Candida tropicalis; 64 µg/mL (≈ 137 µM) in the experiment on Candida parapsilosis; 64 µg/mL (≈ 137 µM) in the experiment on Pichia kudriavzevii; 16 µg/mL (≈ 34.2 µM) against Cryptococcus neoformans; 16 µg/mL (≈ 34.2 µM) in the experiment with Trichophyton rubrum. This molecule also returned an MIC80 with Aspergillus fumigatus of 64 µg/mL (≈ 137 µM).

Regarding `OC(CN1CCC(=NOCc2ccc(C(F)(F)F)cc2)CC1)(Cn1cncn1)c1ccc(F)cc1F` (racemic), the MIC80 was determined as 16 µg/mL (≈ 31.4 µM) with Candida albicans; 64 µg/mL (≈ 126 µM) in the experiment with Candida tropicalis; 64 µg/mL (≈ 126 µM) against Candida parapsilosis; 64 µg/mL (≈ 126 µM) in the experiment with Pichia kudriavzevii; 16 µg/mL (≈ 31.4 µM) in the experiment with Cryptococcus neoformans; 16 µg/mL (≈ 31.4 µM) against Trichophyton rubrum. The molecule further showed an MIC80 with Aspergillus fumigatus of 64 µg/mL (≈ 126 µM).

As for `COc1ccc(CON=C2CCN(CC(O)(Cn3cncn3)c3ccc(F)cc3F)CC2)cc1` (racemic), the MIC80 amounted to 1 µg/mL (≈ 2.12 µM) in the experiment with Candida albicans; 4 µg/mL (≈ 8.48 µM) against Candida tropicalis; 4 µg/mL (≈ 8.48 µM) in the experiment on Candida parapsilosis; 4 µg/mL (≈ 8.48 µM) against Pichia kudriavzevii; 4 µg/mL (≈ 8.48 µM) against Cryptococcus neoformans; 4 µg/mL (≈ 8.48 µM) against Trichophyton rubrum. In the experiment with Aspergillus fumigatus, this molecule came in with an MIC80 of 64 µg/mL (≈ 136 µM).

Regarding `N#Cc1ccc(CON=C2CCN(CC(O)(Cn3cncn3)c3ccc(F)cc3F)CC2)cc1` (racemic), the MIC80 came out at 0.0625 µg/mL (≈ 0.134 µM) in the experiment on Candida albicans; 0.0625 µg/mL (≈ 0.134 µM) against Candida tropicalis; 0.0625 µg/mL (≈ 0.134 µM) in the experiment with Candida parapsilosis; 0.25 µg/mL (≈ 0.536 µM) in the experiment with Pichia kudriavzevii; 0.016 µg/mL (≈ 0.0343 µM) against Cryptococcus neoformans; 0.0625 µg/mL (≈ 0.134 µM) against Trichophyton rubrum. The molecule further displayed an MIC80 in the experiment with Aspergillus fumigatus of 1 µg/mL (≈ 2.14 µM).

On to `OC(CN1CCC(=NOCc2cccc(C(F)(F)F)c2)CC1)(Cn1cncn1)c1ccc(F)cc1F` (racemic), for which the MIC80 was found to be 16 µg/mL (≈ 31.4 µM) against Candida albicans; 64 µg/mL (≈ 126 µM) against Candida tropicalis; 64 µg/mL (≈ 126 µM) with Candida parapsilosis; 64 µg/mL (≈ 126 µM) against Pichia kudriavzevii; 16 µg/mL (≈ 31.4 µM) against Cryptococcus neoformans; 16 µg/mL (≈ 31.4 µM) in the experiment on Trichophyton rubrum. For the same molecule, in the experiment on Aspergillus fumigatus, the MIC80 worked out at 64 µg/mL (≈ 126 µM).

As for `CCc1ccc(CON=C2CCN(CC(O)(Cn3cncn3)c3ccc(F)cc3F)CC2)cc1` (racemic), the MIC80 against Candida albicans worked out at 16 µg/mL (≈ 34.1 µM); against Candida tropicalis, 64 µg/mL (≈ 136 µM); in the experiment with Candida parapsilosis, 64 µg/mL (≈ 136 µM); in the experiment with Pichia kudriavzevii, 64 µg/mL (≈ 136 µM); with Cryptococcus neoformans, 16 µg/mL (≈ 34.1 µM); in the experiment on Trichophyton rubrum, 16 µg/mL (≈ 34.1 µM). The MIC80 against Aspergillus fumigatus was 64 µg/mL (≈ 136 µM).

As to `CCCc1ccc(CON=C2CCN(CC(O)(Cn3cncn3)c3ccc(F)cc3F)CC2)cc1` (racemic), the MIC80 was found to be 16 µg/mL (≈ 33.1 µM) against Candida albicans; 64 µg/mL (≈ 132 µM) in the experiment with Candida tropicalis; 64 µg/mL (≈ 132 µM) against Candida parapsilosis; 64 µg/mL (≈ 132 µM) with Pichia kudriavzevii; 16 µg/mL (≈ 33.1 µM) against Cryptococcus neoformans; 4 µg/mL (≈ 8.27 µM) with Trichophyton rubrum. Further, the MIC80 against Aspergillus fumigatus came to 64 µg/mL (≈ 132 µM).

As for `Cc1ccccc1CON=C1CCN(CC(O)(Cn2cncn2)c2ccc(F)cc2F)CC1` (racemic), the MIC80 with Candida albicans was 16 µg/mL (≈ 35.1 µM); with Candida tropicalis it was 64 µg/mL (≈ 141 µM); against Candida parapsilosis, 64 µg/mL (≈ 141 µM); in the experiment on Pichia kudriavzevii, 64 µg/mL (≈ 141 µM); with Cryptococcus neoformans, 64 µg/mL (≈ 141 µM); against Trichophyton rubrum it was 16 µg/mL (≈ 35.1 µM). The MIC80 against Aspergillus fumigatus was 64 µg/mL (≈ 141 µM).

`OC(CN1CCC(=NOCc2ccc(Cl)c(Cl)c2)CC1)(Cn1cncn1)c1ccc(F)cc1F` (racemic): the MIC80 against Candida albicans is 0.25 µg/mL (≈ 0.49 µM); with Candida tropicalis, 0.25 µg/mL (≈ 0.49 µM); against Candida parapsilosis, 0.25 µg/mL (≈ 0.49 µM); in the experiment with Pichia kudriavzevii, 0.25 µg/mL (≈ 0.49 µM); in the experiment on Cryptococcus neoformans, 0.0625 µg/mL (≈ 0.122 µM); with Trichophyton rubrum, 0.0625 µg/mL (≈ 0.122 µM). Moreover, in the experiment on Aspergillus fumigatus, the MIC80 stood at 1 µg/mL (≈ 1.96 µM).

With `COc1cccc(CON=C2CCN(CC(O)(Cn3cncn3)c3ccc(F)cc3F)CC2)c1` (racemic), the MIC80 against Candida albicans came out at 16 µg/mL (≈ 33.9 µM); in the experiment on Candida tropicalis, 64 µg/mL (≈ 136 µM); in the experiment with Candida parapsilosis, 64 µg/mL (≈ 136 µM); in the experiment with Pichia kudriavzevii it was 64 µg/mL (≈ 136 µM); in the experiment on Cryptococcus neoformans, 16 µg/mL (≈ 33.9 µM); against Trichophyton rubrum it was 16 µg/mL (≈ 33.9 µM). The MIC80 against Aspergillus fumigatus was found to be 64 µg/mL (≈ 136 µM).

With `Cc1cccc(CON=C2CCN(CC(O)(Cn3cncn3)c3ccc(F)cc3F)CC2)c1` (racemic), the MIC80 turned out to be 16 µg/mL (≈ 35.1 µM) in the experiment with Candida albicans; 64 µg/mL (≈ 141 µM) in the experiment on Candida tropicalis; 64 µg/mL (≈ 141 µM) against Candida parapsilosis; 64 µg/mL (≈ 141 µM) against Pichia kudriavzevii; 16 µg/mL (≈ 35.1 µM) against Cryptococcus neoformans; 16 µg/mL (≈ 35.1 µM) against Trichophyton rubrum. In addition, the MIC80 in the experiment on Aspergillus fumigatus was 64 µg/mL (≈ 141 µM).

Consider `O=[N+]([O-])c1ccc(CON=C2CCN(CC(O)(Cn3cncn3)c3ccc(F)cc3F)CC2)cc1` (racemic), for which the MIC80 against Candida albicans was determined as 0.016 µg/mL (≈ 0.0329 µM); with Candida tropicalis it was 0.004 µg/mL (≈ 0.00822 µM); against Candida parapsilosis it was 0.004 µg/mL (≈ 0.00822 µM); with Pichia kudriavzevii, 0.25 µg/mL (≈ 0.514 µM); in the experiment on Cryptococcus neoformans it was 0.016 µg/mL (≈ 0.0329 µM); against Trichophyton rubrum it was 0.0625 µg/mL (≈ 0.128 µM). For the same molecule, in the experiment with Aspergillus fumigatus, the MIC80 came to 1 µg/mL (≈ 2.06 µM).

As for `OC(CN1CCC(=NOCc2ccc3ccccc3c2)CC1)(Cn1cncn1)c1ccc(F)cc1F` (racemic), the MIC80 in the experiment with Candida albicans was determined as 0.016 µg/mL (≈ 0.0326 µM); with Candida tropicalis, 0.016 µg/mL (≈ 0.0326 µM); with Candida parapsilosis, 0.016 µg/mL (≈ 0.0326 µM); in the experiment on Pichia kudriavzevii it was 0.25 µg/mL (≈ 0.509 µM); with Cryptococcus neoformans, 0.016 µg/mL (≈ 0.0326 µM); in the experiment with Trichophyton rubrum, 0.0625 µg/mL (≈ 0.127 µM). In addition, in the experiment on Aspergillus fumigatus, the MIC80 came out at 1 µg/mL (≈ 2.03 µM).

As a reminder, the MIC80 is an inhibitory concentration at the 80% level, which refers to growth in some studies and to a panel of isolates in others. High values mean weaker potency, low ones greater potency.
